The results in this text go back to patent US12110305B2, “Prodrugs of phosphonamide nucleotide analogues and their pharmaceutical use” (priority 2020, dated 2024).

As a reminder, the EC50 is the midpoint of the concentration-response curve. A word on the kinetic solubility: it is the concentration staying in solution when a stock, usually in DMSO, is diluted into the medium. For orientation: CC50 means the concentration giving 50% cytotoxicity.

One data set has as its system HIV-1 (IIIB). The data set is described as follows: Antiviral (HIV) assay in MT-4 cells. It counts as cell-based. Conditions: HIV-1 IIIB in MT-4 cells, 5 days incubation, Cell Titer Glo, average of at least two independent experiments. The method, boiled down:
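MT-4 cells, infected with HIV-1 IIIB (1:250 dilution of concentrated stock) or mock-infected, were exposed to 1:3 serially diluted compounds in RPMI with 10% FBS. After 5 days at 37° C., CellTiter-Glo luminescence was read. EC50 = concentration causing […], from sigmoidal dose-response fits.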
For orientation: Cellular ATP, detected with luciferase, serves as a proxy for viable cell number.

A further data set has as its system PBMCs. As to the kind of experiment: TFV-DP formation in peripheral blood mononuclear cells (PBMCs). It counts as in vitro ADME, human. The following applies: activated PBMCs, 1 μM compound, 50% serum, 2 hrs at 37° C.; intracellular volume 0.2 pL/cell; average of at least two independent experiments. Here is the method:
Example 109: TFV-DP Formation in Peripheral Blood Mononuclear Cells (PBMCs)
Compounds were tested in a 96-well assay format for the level of TFV-DP loading in PBMCs in the presence of human serum. PBMCs were activated with 100 units/mL recombinant human […] and 2 μg/mL phytohaemagglutinin (PHA) for 36 hrs. After activation, PBMCs (2 million) were incubated with compounds (1 μM) and cell culture media with 50% serum in a 96 well plate for 2 hrs at 37° C. Cells were transferred to a 96 well deep block plate and spun down. Liquid was removed, and cells were washed 2× with 1 mL of 0.9% saline with spin downs between washes. After a final wash and liquid removal, 500 μL of MeOH+200 nM Cl-ATP+200 nM [adenine-^13C5]-tenofovir diphosphate (tetra ammonium salt) was added and thoroughly mixed with the cells. The plate was then spun down and 450 μL of sample was transferred to a new 96 well plate. Supernatants were then evaporated, reconstituted in 80 μl of 1 mM ammonium phosphate and thoroughly vortexed. Blank samples were pooled for serial dilution to construct calibration standards for TFV, TFV-DP and TFV-TP in pmol/million cells. Samples were then transferred to a short-well 96 well plate, centrifuged and injected on an LC-MS/MS for quantification. Values were reported in μM units using an intracellular volume of 0.2 pL/cell.

Another data set relates to PHHs. As to the kind of experiment: TFV-DP formation in primary human hepatocytes (PHHs). It counts as in vitro ADME. The following applies: 1 μM compound, 1 hour at 37° C., intracellular volume 3 pL/cell, average of at least two independent experiments. Here is the method:
Example 110: TFV-DP Formation in Primary Human Hepatocytes (PHHs)
Compounds were tested in a 24-well assay format for the level of TFV-DP formation in PHHs. Cells were seeded (4.0×10^5 cells/well) in collagen coated plates and incubated at 37° C. After 4-6 hours the liquid was removed, 500 μl of new media (2% FBS, 1.5% DMSO) was added, and the cells were incubated at 37° C. overnight. The media is then replaced (2% FBS, 1.0% DMSO), compounds (1 μM) were added and the cells were incubated at 37° C. in the presence of compounds for 1 hour. Media was then removed and cells were washed 2× with 500 μl of 0.9% saline. After a final wash and liquid removal, 500 μL of MeOH+200 nM Cl-ATP+200 nM [adenine-^13C5]-tenofovir diphosphate (tetra ammonium salt) was added and cells were incubated at −80° C. for 30 minutes. The cells were kept on water ice while the MeOH/standard supernatant is pipetted up and down several times and then transferred to a 96 deep-well plate. Supernatants were then evaporated, samples were reconstituted in 80 μl of 1 mM ammonium phosphate and then thoroughly vortexed. Blank samples were pooled for serial dilution to construct calibration standards for TFV, TFV-DP and TFV-TP in pmol/million cells. Samples are then transferred to a short-well 96 well plate, centrifuged and injected on an LC-MS/MS for quantification. […]

The nature of a further data set: physchem. The following applies: phosphate buffered saline, 26 °C, aqueous buffer, kinetic from dmso stock, pH 7.4 PBS, 1.0% DMSO, 24-hour incubation at ambient temperature. It counts as physicochemical. The method, then: Example 108: Kinetic Solubility Analysis
Buffer Preparation: 0.1 N HCl: Hydrochloric acid, 0.1 N standardized solution (MP Biomedicals part number 199569). 1×PBS, pH 7.4: Phosphate Buffered Saline (PBS) solution 10× (Fisher Bioreagent part number BP399-500) 50 mL was added to approximately 450 mL HPLC grade H2O. The volume of the solution was then adjusted to 500 mL for a total dilution factor of 1:10 and a final PBS concentration of 1×.
The final DMSO concentration was 1.0% (v/v) and maximum theoretical compound concentration is 100 μM (for compound stock concentration of 10 mM). The filter plate was sealed. Following 24-hour incubation at ambient temperature (24.2-27.5° C.), the samples were vacuum filtered and the filtrates were collected in a 96 well polypropylene plate for analysis. The collection plate was sealed for analysis. Filtrates were injected into the Antek 8060 chemiluminescent nitrogen detector for quantification. The results are reported in μM.
The filtrates were quantified with respect to this calibration curve. Each calculated solubility value was corrected for background nitrogen present in the DMSO and in the medium used to prepare the sample. All reported values for compounds containing adjacent nitrogen atoms in a ring structure were increased by approximately 25%.

A further data set deals with MT-4 cells. As to the kind of experiment: Cytotoxicity assay in MT-4 cells. It counts as cell-based, human. Conditions: uninfected MT-4 cells, 5 days; average of at least two independent experiments; read-out: MT4 CC50. The method, then:
Compounds were tested in a high-throughput 384-well assay format for their ability to inhibit the replication of HIV-1 (IIIB) in MT-4 cells. Compounds were serially diluted (1:3) in DMSO on 384-well polypropylene plates and further diluted 200-fold into complete RPMI media (10% FBS, 1% P/S) using the Biotek Micro Flow and Labcyte ECHO acoustic dispenser. Each plate contained up to 8 test compounds, with negative (no drug) and positive (5 μM AZT) controls. MT-4 cells were pre-treated with 10 μL of either RPMI (mock-infected) or a fresh 1:250 dilution of HIV-1 IIIB concentrated virus stock. Infected and uninfected MT-4 cells were further diluted in complete RPMI media and added to each plate using a Micro Flow dispenser. After 5 days incubation in a humidified and temperature-controlled incubator (37° C.), Cell Titer Glo (Promega) was added to the assay plates and chemiluminescence read using an Envision plate-reader. EC50 values were defined as the compound concentration that causes a 50% decrease in luminescence signal and were calculated using a sigmoidal dose-response model to generate curve fits and are shown in Table 1.
Example 105: Cytotoxicity Assay in MT-4 Cells
Assays were performed as described in Example 104 except uninfected MT-4 cells were added to each well containing test compound. In addition, 10 μM puromycin was added to the last column of each assay plate to assess a base level of cytotoxicity.

The mark [1] stands for this setting: Human immunodeficiency virus 1, MT4, 120 h.

In brackets after ≈: the same amount, converted by molar mass. Like-named read-outs stand apart in the source and are kept apart here.

As to `C[C@H](Cn1cnc2c(N)ncnc21)OCP(=O)(NC(C)(C)C(=O)O[C@H]1CC[C@H](C(C)(C)C)CC1)NC(C)(C)C(=O)O[C@H]1CC[C@H](C(C)(C)C)CC1` [Example 12, Bis(trans-4-(tert-butyl)cyclohexyl) 2,2′-((((((R)-1-(6-amino-9H-purin-9-yl)propan-2-yl)oxy)methyl)phosphoryl)bis(azanediyl))bis(2-methylpropanoate)], it took 172 nM to reach a half-maximal effect in the data set with HIV-1 (IIIB) (setting [1]) (EC50). Also, the “Average PBMC TFV-DP (μM)” value in the data set on PBMCs is on record as “BLQ”.

In the data set with HIV-1 (IIIB) (setting [1]), `C[C@H](Cn1cnc2c(N)ncnc21)OCP(=O)(NC(C)(C)C(=O)OC1CCOCC1)NC(C)(C)C(=O)OC1CCOCC1` [Example 24, Bis(tetrahydro-2H-pyran-4-yl) 2,2′-(((((1-(6-amino-9H-purin-9-yl)propan-2-yl)oxy)methyl)phosphoryl)bis(azanediyl))(R)-bis(2-methylpropanoate)] came in with an EC50 greater than 500 nM. Also, the “Average PBMC TFV-DP (μM)” value in the data set on PBMCs is “BLQ”.

Take `CCCCCCOC(=O)C(C)(C)NP(=O)(CO[C@H](C)Cn1cnc2c(NC(=O)CC(C)(C)c3c(C)cc(C)cc3OC(C)=O)ncnc21)NC(C)(C)C(=O)OCCCCCC` [Example 100, Dihexyl 2,2′-(((((1-(6-(3-(2-acetoxy-4,6-dimethylphenyl)-3-methylbutanamido)-9H-purin-9-yl)propan-2-yl)oxy)methyl)phosphoryl)bis(azanediyl))(R)-bis(2-methylpropanoate)]: the EC50 in the data set with HIV-1 (IIIB) (read-out: MT4 HIV EC50) amounted to 22 nM. Also, in the data set on PBMCs, the “Average PBMC TFV-DP” value worked out at 1.9 µM. Moreover, in the data set with PHHs, the “Average PHH TFV-DP” value came out at 4.73 µM.

As to `CC(C)CCCOC(=O)C(C)(C)NP(=O)(CO[C@H](C)Cn1cnc2c(N)ncnc21)NC(C)(C)C(=O)OCCCC(C)C` [Example 67, Bis(4-methylpentyl) 2,2′-(((((1-(6-amino-9H-purin-9-yl)propan-2-yl)oxy)methyl)phosphoryl)bis(azanediyl))(R)-bis(2-methylpropanoate)], the EC50 in the data set on HIV-1 (IIIB) (setting [1]) was determined as 8 nM. In the data set “physchem”, this compound registered a solubility (kinetic) at 24 h of 38 µg/mL (≈ 60.7 µM).

Consider `C[C@H](Cn1cnc2c(N)ncnc21)OCP(=O)(NC(C)(C)C(=O)OCC1CCC(C)(C)CC1)NC(C)(C)C(=O)OCC1CCC(C)(C)CC1` [Example 13, Bis((4,4-dimethylcyclohexyl)methyl) 2,2′-(((((1-(6-amino-9H-purin-9-yl)propan-2-yl)oxy)methyl)phosphoryl)bis(azanediyl))(R)-bis(2-methylpropanoate)], for which the half-maximal effective concentration (EC50) in the data set on HIV-1 (IIIB) (read-out: MT4 HIV EC50) came to 16 nM. Moreover, the 50% cytotoxic concentration (CC50) in the data set on MT-4 cells amounted to 5470 nM. For the same compound, in the data set with PBMCs, the “Average PBMC TFV-DP” value came to 2.6 µM.

In the data set on HIV-1 (IIIB) (setting [1]), `CCCCCCOC(=O)C(C)(C)NP(=O)(CO[C@H](C)Cn1cnc2c(NC(=O)CC(C)(C)CC(=O)OCc3oc(=O)oc3C)ncnc21)NC(C)(C)C(=O)OCCCCCC` [Example 102, Dihexyl 2,2′-(((((1-(6-(3,3-dimethyl-5-((5-methyl-2-oxo-1,3-dioxol-4-yl)methoxy)-5-oxopentanamido)-9H-purin-9-yl)propan-2-yl)oxy)methyl)phosphoryl)bis(azanediyl))(R)-bis(2-methylpropanoate)] registered an EC50 greater than 500 nM. Besides, the “Average PBMC TFV-DP (μM)” value with PBMCs was “BLQ”.

Consider `C[C@H](Cn1cnc2c(N)ncnc21)OCP(=O)(NC(C)(C)C(=O)OCCc1ccccc1)NC(C)(C)C(=O)OCCc1ccccc1` [Example 103, Diphenethyl 2,2′-(((((1-(6-amino-9H-purin-9-yl)propan-2-yl)oxy)methyl)phosphoryl)bis(azanediyl))(R)-bis(2-methylpropanoate)], for which the EC50 in the data set with HIV-1 (IIIB) (read-out: MT4 HIV EC50) is greater than 500 nM. The CC50 in the data set with MT-4 cells was greater than 42500 nM. Moreover, in the data set on PBMCs, the “Average PBMC TFV-DP” value was 0.4 µM.

Regarding `CCCCCCOC(=O)C(C)(C)NP(=O)(CO[C@H](C)Cn1cnc2c(NC(=O)CCCSC(C)=O)ncnc21)NC(C)(C)C(=O)OCCCCCC` [Example 97, Dihexyl 2,2′-(((((1-(6-(4-(acetylthio)butanamido)-9H-purin-9-yl)propan-2-yl)oxy)methyl)phosphoryl)bis(azanediyl))(R)-bis(2-methylpropanoate)], the concentration giving a half-maximal response (EC50) with HIV-1 (IIIB) (read-out: MT4 HIV EC50) came out at 13 nM. The CC50 with MT-4 cells came to 10700 nM. Besides, the “Average PBMC TFV-DP” value with PBMCs was determined as 1.4 µM. For the same compound, the “Average PHH TFV-DP” value in the data set on PHHs amounted to 1.60 µM.

On to `C[C@H](Cn1cnc2c(N)ncnc21)OCP(=O)(NC(C)(C)C(=O)OC[C@H]1CC[C@H](C)CC1)NC(C)(C)C(=O)OC[C@H]1CC[C@H](C)CC1` [Example 91, Bis((trans-4-methylcyclohexyl)methyl) 2,2′-((((((R)-1-(6-amino-9H-purin-9-yl)propan-2-yl)oxy)methyl)phosphoryl)bis(azanediyl))bis(2-methylpropanoate)], for which the EC50 in the data set on HIV-1 (IIIB) (setting [1]) is 5 nM.

For the compound `C[C@H](Cn1cnc2c(N)ncnc21)OCP(=O)(NC(C)(C)C(=O)OCCCCC(F)(F)F)NC(C)(C)C(=O)OCCCCC(F)(F)F` [Example 25, Bis(5,5,5-trifluoropentyl) 2,2′-(((((1-(6-amino-9H-purin-9-yl)propan-2-yl)oxy)methyl)phosphoryl)bis(azanediyl))(R)-bis(2-methylpropanoate)], in the data set with HIV-1 (IIIB) (setting [1]), the midpoint of the response, the EC50, lay at 8 nM.
